pEC50: −log10 of the molar value.
Key:
[1] = system: Human adult lung fibroblasts (passage 3); test: Fibroblast activation (TGFβ, alpha-smooth muscle actin); type: cell-based; conditions: +2 ng/mL TGFβ, 96 hours, alpha-smooth muscle actin intensity
Experimental: Human adult lung fibroblasts (passage 3) were plated into 96-well plates and treated with the indicated compound (6-point dose-response) +2 ng/mL TGFβ to stimulated fibroblast activation. Cells were incubated for 96 hours, fixed using 4% PFA, permeabilized using 0.25% triton x-100, and stained using a primary antibody recognizing alpha-smooth muscle actin and a secondary fluorescent conjugated antibody, and DAPI. Cells were then imaged using a 4× objective on a Cytation5 microscope and alpha-smooth muscle actin intensity was quantified using automated software (Biotek Gen5). Data shown are the IC50 values for each compounds efficacy at reducing expression of alpha-smooth muscle actin, calculated from the calculated dose-response curves, N=3 independent.

[2] = system: senescent human adult lung fibroblasts; test: Apoptosis of senescent lung fibroblasts (cleaved caspase-3, DAPI); type: cell-based; conditions: replicatively senescent human adult lung fibroblasts, 96 hours, 6-point dose-response, N=3; for pEC50: read-out: Senescent fibroblast apoptosis EC50
Experimental: (§1) Human adult lung fibroblasts were replicatively passaged until senescence (confirmed by RNA and senescence associated beta galactosidase staining). In a parallel experiment, low passage proliferating fibroblasts from the same donor were compared. Cells were plated into 96-well plates and treated with the indicated compound (6-point dose-response) and incubated for 96 hours. Cells were then fixed using 4% PFA, permeabilized using 0.25% triton x-100, and nuclear stained using a primary antibody for cleaved caspase-3, secondary fluorescence conjugated antibody, and DAPI. Cells were then imaged using a 4× objective on a Cytation5 microscope and cell counts were quantified using automated software (Biotek Gen5). Data shown are the EC50 values calculated for each compounds efficacy to induce apoptosis in senescence vs. proliferating lung fibroblasts, from the calculated dose-response curves, N=3 independent experiments.

DRAK1 = target: T1, DRAK1 (Homo sapiens, UniProt Q9UEE5); test: DRAK1 kinase activity assay (radiolabeled ATP, Reaction Biology); type: biochemical; conditions: FIG. 30
T1 construct: purchased Reaction Biology
T1 sequence (Q9UEE5 1-414): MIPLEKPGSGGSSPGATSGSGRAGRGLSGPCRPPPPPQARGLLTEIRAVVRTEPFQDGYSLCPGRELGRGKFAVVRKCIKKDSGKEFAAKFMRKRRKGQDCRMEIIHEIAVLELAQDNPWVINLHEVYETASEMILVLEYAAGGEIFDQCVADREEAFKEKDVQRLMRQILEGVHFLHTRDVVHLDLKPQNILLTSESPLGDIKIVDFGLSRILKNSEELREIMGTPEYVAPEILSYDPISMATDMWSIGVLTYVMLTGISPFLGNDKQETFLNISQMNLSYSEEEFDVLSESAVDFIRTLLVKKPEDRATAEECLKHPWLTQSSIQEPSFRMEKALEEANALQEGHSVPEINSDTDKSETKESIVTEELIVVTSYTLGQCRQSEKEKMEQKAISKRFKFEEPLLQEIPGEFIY
Experimental: DRAK1 kinase activity was also assessed. […] A DRAK1 kinase activity was performed by Reaction Biology. DRAK1 kinase activity was measured and plotted (FIG. 30).

[3] = system: low passage proliferating fibroblasts; test: Apoptosis of low passage proliferating lung fibroblasts (cleaved caspase-3, DAPI); type: cell-based, human; conditions: low passage proliferating fibroblasts from the same donor, 96 hours, 6-point dose-response, N=3; for pEC50: read-out: Proliferating fibroblast apoptosis EC50
Experimental: as §1

wild type mice = test: Comparative flavonoid efficacy and toxicity in aged brain and liver (real-time PCR); type: in vivo, mouse
Text: Five-month-old and twenty-eight month old wild type mice were oral gavage treated with the indicated concentrations of flavonoids (F, Q, compound 19, or compound 20) or vehicle for four consecutive days and were euthanized one week later.

col1a2-mTmG mice = test: Bleomycin injury and lung fibrosis, flow sorted lung cell populations, qPCR; type: in vivo, mouse; conditions: daily from day 10 after bleomycin injury, lungs sorted on day 14
Experimental: Seven days prior to injury col1a2-mTmG mice were treated with tamoxifen to turn on GFP expression in collagen producing fibroblasts. F-19 was administered daily starting on day 10 after injury, lungs were isolated, and lung tissue was flow sorted for fibroblasts, epithelial cells, and leukocytes on day 14. The sorted cells were subjected to RNA isolation followed by qPCR analysis of the indicated genes in each population of cells. N=3 mice/group.

in vitro = in vitro ADME; conditions: rat; for Plasma bound / Plasma unbound: 4 h
Experimental: Plasma protein binding assays were also performed (Table 2). Compounds were incubated with rat plasma for 4 hours. The percent of F-4N recovered was analyzed by LC-MS. Warfarin was used as a control for a compound with high plasma protein binding. Analysis performed by Cyprotex (Framingham, MA).

[4] = system: senescent human adult lung fibroblasts; test: Senescent fibroblast survival (DAPI cell counts); type: cell-based; conditions: 96 hours, 3 point and 6-point dose response
Experimental: (§2) For senescent fibroblast survival experiments, human adult lung fibroblasts were replicatively passaged until senescence (confirmed by RNA and senescence associated beta galactosidase staining). Cells were then plated into 96-well plates and treated with the indicated compound and incubated for 96 hours. Cells were then fixed using 4% PFA, permeabilized using 0.25% triton x-100, and nuclear stained using DAPI. Cells were then imaged using a 4× objective on a Cytation5 microscope and cell counts were quantified using automated software (Biotek Gen5). Data shown are plotted as % survival, normalized to the vehicle treated well. Mean+/−SEM, N=3 independent experiments. For the TGFβ stimulated collagen deposition experiments (square datapoints), human adult lung fibroblasts (passage 3) were plated into 96-well plates and treated with the indicated compound +2 ng/mL TGFβ to stimulated collagen expression. Cells were incubated for 96 hours, fixed using 4% PFA, permeabilized using 0.25% triton x-100, and stained using a primary antibody recognizing type I collagen and a secondary infrared conjugated antibody. Wells were then imaged at 1× using a Odyssey Lx (LI-CORE) infrared imager and collagen intensity was quantified using automated software. Data shown are plotted as % collagen intensity, normalized to the vehicle treated well. Mean+/−SEM, N=3 independent experiments.

[5] = system: Human adult lung fibroblasts (passage 3); test: TGFβ stimulated collagen deposition; type: cell-based; conditions: +2 ng/mL TGFβ, 96 hours
Experimental: as §2

Row | Structure (SMILES) | pEC50 [1] | pEC50 [2] | pEC50 [3] | other results
1 | COc1cccc2oc(-c3ccc(OCc4ccncc4)cc3)c(O)c(=O)c12 [5-MeOH—F—4N] | 5.68 | – | – | Senescent fibroblast apoptosis EC50 [2]: inactive; DRAK1 kinase activity (DRAK1): inactive; Proliferating fibroblast apoptosis EC50 [3]: inactive
2 | COc1ccc2oc(-c3ccc(OCc4ccccc4)cc3)c(O)c(=O)c2c1 [6-MeOH—F-20] | 5.70 | 6.10 | 5.29 | –
3 | CCOc1ccc(-c2oc3ccc(OC)cc3c(=O)c2O)cc1 [6-MeOH—F-19] | 5.40 | 5.57 | 4.82 | –
4 | O=c1c(O)c(-c2ccc(O)c(O)c2)oc2cc(O)ccc12 [fisetin] | – | – | – | CD68 expression (indicator of inflammatory activation) in brain or liver (wild type mice; mouse, in vivo, po): lack of drug-induced toxicity
5 | O=c1c(O)c(-c2ccc(OCC3CC3)cc2)oc2ccccc12 [F—CP] | 5.96 | 6.05 | 4.96 | –
6 | O=c1c(O)c(-c2ccc(OCc3ccccn3)cc2)oc2ccccc12 [F—2N] | – | – | – | Fibroblast activation (EC50) [1]: inactive; Senescent fibroblast apoptosis EC50 [2]: inactive; Proliferating fibroblast apoptosis EC50 [3]: inactive
7 | CCOc1ccc(-c2oc3ccccc3c(=O)c2O)cc1 [F-19] | 5.62 | 5.62 | 4.61 | senescence markers or inflammatory cytokines in leukocytes (CD45+ cells), qPCR (col1a2-mTmG mice): No changes
8 | O=c1c(O)c(-c2ccc(OCc3ccccc3)cc2)oc2ccccc12 [F-20] | 5.70 | 5.82 | 4.56 | –
9 | O=c1c(O)c(-c2ccc(OCc3cccnc3)cc2)oc2ccccc12 [F—3N] | – | 4.36 | – | Fibroblast activation (EC50) [1]: inactive; Proliferating fibroblast apoptosis EC50 [3]: inactive
10 | O=c1c(O)c(-c2ccc(O)c(O)c2)oc2cc(O)cc(O)c12 [Quercetin, quercetin] | – | – | – | recovery at 4 h, 5 μM (in vitro): 0.8%; Plasma bound (in vitro; 5 μM): 95%; Plasma unbound (in vitro; 5 μM): 5.0%; CD68 expression (indicator of inflammatory activation) in brain or liver (wild type mice; oral gavage four consecutive days, euthanized one week later): lack of drug-induced toxicity
11 | CC(=O)CC(c1ccccc1)c1c(O)c2ccccc2oc1=O (stereo not shown) [Warfarin] | – | – | – | recovery at 4 h, 2 μM (in vitro): 100%; Plasma bound (in vitro; 2 μM): 99%; Plasma unbound (in vitro; 2 μM): 0.971%
12 | CCCOc1ccc(-c2oc3ccccc3c(=O)c2O)cc1 [F-19(Me)] | 5.40 | 5.47 | 4.71 | –
13 | COc1cccc2oc(-c3ccc(OCc4ccccc4)cc3)c(O)c(=O)c12 [5-MeOH—F-20] | 6.05 | 6.46 | 5.26 | –
14 | CCOc1ccc(-c2oc3ccc(C)cc3c(=O)c2O)cc1OC [2-(4-ethoxy-3-methoxyphenyl)-3-hydroxy-6-methylchromen-4-one] | – | – | – | senescent fibroblast survival (in words) [4]: effective toxicity against senescent cells; TGFβ stimulated collagen deposition (in words) [5]: blocked collagen deposition
15 | CCOc1ccc(-c2oc3ccccc3c(=O)c2O)cc1OCC [2-(3,4-diethoxyphenyl)-3-hydroxy-4h-1-benzopyran-4-one] | – | – | – | senescent fibroblast survival (in words) [4]: effective toxicity against senescent cells; TGFβ stimulated collagen deposition (in words) [5]: blocked collagen deposition
16 | CCOc1ccc(-c2oc3ccccc3c(=O)c2O)cc1OC [F-19(3MeOH)] | 5.19 | – | 4.98 | –
